Test results reported in BindingDB's records for doi:10.1016/j.bmc.2018.07.019 (The Scripps Research Institute, 2018).

Assay: Inhibition of ATG-Myc (unknown origin) expressed in CEF cells assessed as inhibition of microtumor formation

Compound | IC50
COc1ccc(-c2cc(-c3ccc(C(N)=O)cc3)nc(-c3ccccc3)n2)cc1 | > 100 µM
N#Cc1ccc(-c2cc(-c3ccc(C(N)=O)cc3)nc(-c3cc[n+]([O-])cc3)n2)cc1 | > 100 µM
NC(=O)c1ccc(-c2cc(-c3ccc(-c4cnco4)cc3)nc(-c3ccco3)c2)cc1 | 2.5 µM
NC(=O)c1ccc(-c2cc(-c3ccc(-c4nccs4)cc3)nc(-c3ccco3)c2)cc1 | 5 µM
Cn1ccnc1-c1cc(-c2ccc(C(N)=O)cc2)cc(-c2ccc(C#N)cc2)n1 | 40 µM
N#Cc1ccc(-c2cc(-c3ccc(C(N)=O)cc3)cc(-c3cncs3)n2)cc1 | 30 µM
N#Cc1ccc(-c2cc(-c3ccc(C(N)=O)cc3)nc(-c3ccco3)n2)cc1 | 7 µM
N#Cc1ccc(-c2cc(-c3ccc(C(N)=O)cc3)cc(-c3cccc(F)c3)n2)cc1 | > 100 µM
N#Cc1ccc(-c2cc(-c3ccc(C(=O)NN)cc3)cc(-c3ccco3)n2)cc1 | > 100 µM
CS(=O)(=O)NC(=O)c1ccc(-c2cc(-c3ccc(C#N)cc3)nc(-c3ccco3)c2)cc1 | 10 µM
N#Cc1ccc(-c2cc(-c3ccc(-c4nnn[nH]4)cc3)cc(-c3ccco3)n2)cc1 | 2 µM
c1coc(-c2cc(-c3nccs3)cc(-c3ccc(-c4nccs4)cc3)n2)c1 | > 100 µM
N#Cc1ccc(-c2cc(-c3ccc(C(N)=O)cc3)cc(-c3cnco3)n2)cc1 | 5 µM
N#Cc1ccc(-c2cc(-c3ccc(C(N)=O)cc3)cc(-c3ccco3)n2)cc1 | 3 µM
Cn1nncc1-c1cc(-c2ccc(C(N)=O)cc2)cc(-c2ccc(C#N)cc2)n1 | 40 µM
